{"source": "patent US7211428B1", "about": "“Strain of Bacillus as a bioinoculant” (Council of Scientific and Industrial Research, priority 2004, dated 2007)", "system": "geranium cuttings", "assay": "Root initiation and survival of geranium cuttings after treatment", "format": "in vivo, Pelargonium graveolens", "design": "% survivality, Normal / % survivality, Two node / % survivality, Apical: concentration or dose not given beside the values", "conditions": "for % survivality, Apical: apical cuttings; for % survivality, Normal: normal cuttings; for % survivality, Two node: two node cuttings", "text": "Geranium cuttings treated with Bacillus strain MTCC-5130, initiated rooting after 22–25 days of treatment, which was 5–7 days earlier than untreated control cuttings."}
{"substance": "Indole butyric acid [IBA]", "values": [{"measurement": "Root initiation (days after)", "setting": "cuttings of Dec. 5, 2001", "result": 28, "unit": "days"}, {"measurement": "% survivality, Apical", "setting": "cuttings of Dec. 5, 2001", "result": 100.0, "unit": "%"}, {"measurement": "% survivality, Normal", "setting": "cuttings of Dec. 5, 2001", "result": 100, "unit": "%"}, {"measurement": "% survivality, Two node", "setting": "cuttings of Dec. 5, 2001", "result": 100, "unit": "%"}, {"measurement": "Root initiation (days after)", "setting": "cuttings of Nov. 20, 2001", "result": 27, "unit": "days"}, {"measurement": "% survivality, Apical", "setting": "cuttings of Nov. 20, 2001", "result": 95.8, "unit": "%"}, {"measurement": "% survivality, Normal", "setting": "cuttings of Nov. 20, 2001", "result": 100, "unit": "%"}, {"measurement": "% survivality, Two node", "setting": "cuttings of Nov. 20, 2001", "result": 69.2, "unit": "%"}]}
